From US20250082716A1, “REPRESSED ANG 1-7 IN COVID-19 IS INVERSELY ASSOCIATED WITH INFLAMMATION AND COAGULATION” (priority 2021, published 2025)
Read-outs that look alike come from different tables or passages of the source.

System: SARS-CoV-2 South African variant
Assay type: in vivo, LVG Golden Syrian male hamsters

Row | Compound | daily body weights expressed as the percentage of starting body weight (hamster, in vivo) | daily body weights expressed as the percentage of starting body weight (pump implant delivering angiotensin 1-7 at 12 mg/kg/day, started the day after inoculation with 500,000 PFU, n=3)
1 | CCNC(=O)NS(=O)(=O)c1sc(CC(C)C)cc1-c1ccc(Cn2c(-c3ccccc3)nc(OC)c2C=O)cc1 [AVE0991, N-(Ethylcarbamoyl)-3-(4-((5-formyl-4-methoxy-2-phenyl-1H-imidazol-1-YL)methyl)phenyl)-5-isobutylthiophene-2-sulfonamide] | continued to gain weight through the entire course of infection | 
2 | Asp-Arg-Val-Tyr-Ile-His-Pro (DRVYIHP; printed: Asp-Arg-Val-Tyr-Ile-His-Pro) [angiotensin 1-7] |  | continued to gain weight through the entire course of infection
